# Data from patent EP0908457B1, “3-(1,2-benzisothiazol- and isoxazol-5-Y1)-2,4(1H,3H)-pyrimidinedione or thione and 3-(1,2-benzisothiazol- and isoxazol-5-y1)-4(3H)-pyrimidinone or thione herbicidal agents” (BASF AKTIENGESELLSCHAFT, priority 1997, dated 1999).
# Legend:
# [1] = test system: Echinochloa oryzoides (Ard.) Fritsch.; experiment: Preemergence weed control under flooded paddy conditions, ECHORC (Watergrass (Calif.)); type: in vivo; details: preemergence, flooded paddy, rated three to four weeks after treatment; for herbicidal effect rating, ECHORC: meaning of each grade not given here
# [2] = test system: Cyperus iria; experiment: Preemergence weed control under flooded paddy conditions, CYPIR (Rice Flatsedge); type: in vivo; details: preemergence, flooded paddy, rated three to four weeks after treatment; for herbicidal effect rating, CYPIR: meaning of each grade not given here
# [3] = test system: Cyperus serotinus, Rottb.; experiment: Preemergence weed control under flooded paddy conditions, CYPSE (Flatsedge); type: in vivo; details: preemergence, rated three to four weeks after treatment; for herbicidal effect rating, CYPSE: meaning of each grade not given here
# [4] = test system: Monochoria vaginalis, Presl.; experiment: Preemergence weed control under flooded paddy conditions, MOOVA (Monochoria); type: in vivo; details: preemergence, flooded paddy, rated three to four weeks after treatment; for herbicidal effect rating, MOOVA: meaning of each grade not given here
# [5] = test system: Sagittaria pygmaea, L.; experiment: Preemergence weed control under flooded paddy conditions, SAGPY (Arrowhead (Pygmaea)); type: in vivo; details: preemergence, flooded paddy, rated three to four weeks after treatment; for herbicidal effect rating, SAGPY: meaning of each grade not given here
# [6] = test system: Oryza sativa, (L.) Tebonnet; experiment: Rice tolerance to post-transplant applications under flooded paddy conditions (Example 187), ORYSAT (Rice, Tebonnet); details: rated three to four weeks after treatment; for herbicidal effect rating ORYSAT: meaning of each grade not given here
smiles,measurement,setting,value
"CC(=O)NCCOC(=O)c1nsc2ccc(-n3c(=O)cc(C(F)(F)F)n(C)c3=O)cc12 [Example 387, 1,2-Benzisothiazole-3-carboxylic acid, 5-[3,6-dihydro-3-methyl-2,6-dioxo-4-(trifluoromethyl)-1(2H)-pyrimidinyl]-, 2-acetamidoethyl ester]","herbicidal effect rating, ECHORC",[1]; Rate 0.0320 kg/ha,0.0
same,"herbicidal effect rating, ECHORC",[1]; Rate 0.0620 kg/ha,0.0
same,"herbicidal effect rating, ECHORC",[1]; Rate 0.1250 kg/ha,0.0
same,"herbicidal effect rating, ECHORC",[1]; Rate 0.2500 kg/ha,3.0
same,"herbicidal effect rating, CYPIR",[2]; Rate 0.0320 kg/ha,0.0
same,"herbicidal effect rating, CYPIR",[2]; Rate 0.0620 kg/ha,5.0
same,"herbicidal effect rating, CYPIR",[2]; Rate 0.1250 kg/ha,6.0
same,"herbicidal effect rating, CYPIR",[2]; Rate 0.2500 kg/ha,7.0
same,"herbicidal effect rating, CYPSE",[3]; Rate 0.0320 kg/ha,2.0
same,"herbicidal effect rating, CYPSE",[3]; Rate 0.0620 kg/ha,5.0
same,"herbicidal effect rating, CYPSE",[3]; Rate 0.1250 kg/ha,5.0
same,"herbicidal effect rating, CYPSE",[3]; Rate 0.2500 kg/ha,5.0
same,"herbicidal effect rating, MOOVA",[4]; Rate 0.0320 kg/ha,4.0
same,"herbicidal effect rating, MOOVA",[4]; Rate 0.0620 kg/ha,9.0
same,"herbicidal effect rating, MOOVA",[4]; Rate 0.1250 kg/ha,9.0
same,"herbicidal effect rating, MOOVA",[4]; Rate 0.2500 kg/ha,9.0
same,"herbicidal effect rating, SAGPY",[5]; Rate 0.0320 kg/ha,3.0
same,"herbicidal effect rating, SAGPY",[5]; Rate 0.0620 kg/ha,4.0
same,"herbicidal effect rating, SAGPY",[5]; Rate 0.1250 kg/ha,5.0
same,"herbicidal effect rating, SAGPY",[5]; Rate 0.2500 kg/ha,6.0
same,herbicidal effect rating ORYSAT,[6]; Rate 0.0320 kg/ha,0.0
same,herbicidal effect rating ORYSAT,[6]; Rate 0.0620 kg/ha,0.0
same,herbicidal effect rating ORYSAT,[6]; Rate 0.1250 kg/ha,2.0
same,herbicidal effect rating ORYSAT,[6]; Rate 0.2500 kg/ha,2.0
"C=CCC(C#N)(CC=C)c1nsc2ccc(-n3c(=O)cc(C(F)(F)F)n(C)c3=O)cc12 [Example 580, 1,2-Benzisothiazole-3-acetonitrile, alpha,alpha-diallyl-5-[3,6-dihydro-3-methyl-2,6-dioxo-4-(trifluoromethyl)-1(2H)-pyrimidinyl]-]","herbicidal effect rating, ECHORC",[1]; Rate 0.0320 kg/ha,8.5
same,"herbicidal effect rating, ECHORC",[1]; Rate 0.0620 kg/ha,9.0
same,"herbicidal effect rating, ECHORC",[1]; Rate 0.1250 kg/ha,9.0
same,"herbicidal effect rating, ECHORC",[1]; Rate 0.2500 kg/ha,9.0
same,"herbicidal effect rating, CYPIR",[2]; Rate 0.0320 kg/ha,3.0
same,"herbicidal effect rating, CYPIR",[2]; Rate 0.0620 kg/ha,9.0
same,"herbicidal effect rating, CYPIR",[2]; Rate 0.1250 kg/ha,9.0
same,"herbicidal effect rating, CYPIR",[2]; Rate 0.2500 kg/ha,9.0
same,"herbicidal effect rating, CYPSE",[3]; Rate 0.0320 kg/ha,5.5
same,"herbicidal effect rating, CYPSE",[3]; Rate 0.0620 kg/ha,9.0
same,"herbicidal effect rating, CYPSE",[3]; Rate 0.1250 kg/ha,9.0
same,"herbicidal effect rating, CYPSE",[3]; Rate 0.2500 kg/ha,8.5
same,"herbicidal effect rating, MOOVA",[4]; Rate 0.0320 kg/ha,4.5
same,"herbicidal effect rating, MOOVA",[4]; Rate 0.0620 kg/ha,9.0
same,"herbicidal effect rating, MOOVA",[4]; Rate 0.1250 kg/ha,9.0
same,"herbicidal effect rating, MOOVA",[4]; Rate 0.2500 kg/ha,9.0
same,"herbicidal effect rating, SAGPY",[5]; Rate 0.0320 kg/ha,5.5
same,"herbicidal effect rating, SAGPY",[5]; Rate 0.0620 kg/ha,8.0
same,"herbicidal effect rating, SAGPY",[5]; Rate 0.1250 kg/ha,8.0
same,"herbicidal effect rating, SAGPY",[5]; Rate 0.2500 kg/ha,8.5
same,herbicidal effect rating ORYSAT,[6]; Rate 0.0320 kg/ha,1.5
same,herbicidal effect rating ORYSAT,[6]; Rate 0.0620 kg/ha,4.0
same,herbicidal effect rating ORYSAT,[6]; Rate 0.1250 kg/ha,4.0
same,herbicidal effect rating ORYSAT,[6]; Rate 0.2500 kg/ha,6.5
"Cn1c(C(F)(F)F)cc(=O)n(-c2ccc3snc(C(=O)NS(=O)(=O)c4cccs4)c3c2)c1=O [Example 391, 1,2-Benzisothiazole-3-carboxamide, 5-[3,6-dihydro-3-methyl-2,6-dioxo-4-(trifluoromethyl)-1(2H)-pyrimidinyl]-N-(2-thienylsulfonyl)-]","herbicidal effect rating, ECHORC",[1]; Rate 0.0320 kg/ha,0.0
same,"herbicidal effect rating, ECHORC",[1]; Rate 0.0620 kg/ha,0.0
same,"herbicidal effect rating, ECHORC",[1]; Rate 0.1250 kg/ha,2.0
same,"herbicidal effect rating, ECHORC",[1]; Rate 0.2500 kg/ha,4.0
same,"herbicidal effect rating, ECHORC",[1]; Rate 0.5000 kg/ha,6.0
same,"herbicidal effect rating, CYPIR",[2]; Rate 0.0320 kg/ha,3.0
same,"herbicidal effect rating, CYPIR",[2]; Rate 0.0620 kg/ha,3.0
same,"herbicidal effect rating, CYPIR",[2]; Rate 0.1250 kg/ha,4.0
same,"herbicidal effect rating, CYPIR",[2]; Rate 0.2500 kg/ha,6.0
same,"herbicidal effect rating, CYPIR",[2]; Rate 0.5000 kg/ha,9.0
same,"herbicidal effect rating, CYPSE",[3]; Rate 0.0320 kg/ha,0.0
same,"herbicidal effect rating, CYPSE",[3]; Rate 0.0620 kg/ha,0.0
same,"herbicidal effect rating, CYPSE",[3]; Rate 0.1250 kg/ha,0.0
same,"herbicidal effect rating, CYPSE",[3]; Rate 0.2500 kg/ha,0.0
same,"herbicidal effect rating, CYPSE",[3]; Rate 0.5000 kg/ha,3.0
same,"herbicidal effect rating, MOOVA",[4]; Rate 0.0320 kg/ha,6.0
same,"herbicidal effect rating, MOOVA",[4]; Rate 0.0620 kg/ha,9.0
same,"herbicidal effect rating, MOOVA",[4]; Rate 0.1250 kg/ha,9.0
same,"herbicidal effect rating, MOOVA",[4]; Rate 0.2500 kg/ha,9.0
same,"herbicidal effect rating, MOOVA",[4]; Rate 0.5000 kg/ha,9.0
same,"herbicidal effect rating, SAGPY",[5]; Rate 0.0320 kg/ha,6.0
same,"herbicidal effect rating, SAGPY",[5]; Rate 0.0620 kg/ha,6.0
same,"herbicidal effect rating, SAGPY",[5]; Rate 0.1250 kg/ha,7.0
same,"herbicidal effect rating, SAGPY",[5]; Rate 0.2500 kg/ha,7.0
same,"herbicidal effect rating, SAGPY",[5]; Rate 0.5000 kg/ha,9.0
same,herbicidal effect rating ORYSAT,[6]; Rate 0.0320 kg/ha,2.0
same,herbicidal effect rating ORYSAT,[6]; Rate 0.0620 kg/ha,2.0
same,herbicidal effect rating ORYSAT,[6]; Rate 0.1250 kg/ha,3.0
same,herbicidal effect rating ORYSAT,[6]; Rate 0.2500 kg/ha,3.0
same,herbicidal effect rating ORYSAT,[6]; Rate 0.5000 kg/ha,3.0
"Cc1ccc(OC(C)(C)C(=O)OC(C)(C)C)c(-c2nsc3ccc(-n4c(=O)cc(C(F)(F)F)n(C)c4=O)cc23)c1 [Example 514, Propionic acid, 2-{{2-{5-[3,6-dihydro-3-methyl-2,6-dioxo-4-(trifluoromethyl)-1(2H)-pyrimidinyl]-1,2-benzisothiazol-3-yl}-p-tolyl}oxy}-2-methyl-, tert-butyl ester]",ECHORC herbicidal rating,[1]; 0.0320 kg/ha,0.0
same,ECHORC herbicidal rating,[1]; 0.0620 kg/ha,1.0
same,ECHORC herbicidal rating,[1]; 0.1250 kg/ha,2.0
same,ECHORC herbicidal rating,[1]; 0.2500 kg/ha,8.0
same,CYPIR herbicidal rating,[2]; 0.0320 kg/ha,0.0
same,CYPIR herbicidal rating,[2]; 0.0620 kg/ha,0.0
same,CYPIR herbicidal rating,[2]; 0.1250 kg/ha,2.0
same,CYPIR herbicidal rating,[2]; 0.2500 kg/ha,7.0
same,CYPSE herbicidal rating,[3]; 0.0320 kg/ha,0.0
same,CYPSE herbicidal rating,[3]; 0.0620 kg/ha,0.0
same,CYPSE herbicidal rating,[3]; 0.1250 kg/ha,0.0
same,CYPSE herbicidal rating,[3]; 0.2500 kg/ha,0.0
same,MOOVA herbicidal rating,[4]; 0.0320 kg/ha,9.0
same,MOOVA herbicidal rating,[4]; 0.0620 kg/ha,9.0
same,MOOVA herbicidal rating,[4]; 0.1250 kg/ha,9.0
same,MOOVA herbicidal rating,[4]; 0.2500 kg/ha,9.0
same,SAGPY herbicidal rating,[5]; 0.0320 kg/ha,0.0
same,SAGPY herbicidal rating,[5]; 0.0620 kg/ha,0.0
same,SAGPY herbicidal rating,[5]; 0.1250 kg/ha,0.0
same,SAGPY herbicidal rating,[5]; 0.2500 kg/ha,0.0
same,ORYSAT herbicidal rating (rice tolerance),[6]; 0.0320 kg/ha,2.0
same,ORYSAT herbicidal rating (rice tolerance),[6]; 0.0620 kg/ha,2.0
same,ORYSAT herbicidal rating (rice tolerance),[6]; 0.1250 kg/ha,1.0
same,ORYSAT herbicidal rating (rice tolerance),[6]; 0.2500 kg/ha,4.0
"CCCCS(=O)(=O)NC(=O)COc1ccccc1-c1nsc2ccc(-n3c(=O)cc(C(F)(F)F)n(C)c3=O)cc12 [Example 574, Acetamide, N-(butylsulfonyl)-2-{o-{5-[3,6-dihydro-3-methyl-2,6-dioxo-4-(trifluoromethyl)-1(2H)-pyrimidinyl]-1,2-benzisothiazol-3-yl}-phenoxy}-]","herbicidal effect rating, ECHORC",[1]; Rate 0.0320 kg/ha,4.0
same,"herbicidal effect rating, ECHORC",[1]; Rate 0.0620 kg/ha,6.5
same,"herbicidal effect rating, ECHORC",[1]; Rate 0.1250 kg/ha,8.5
same,"herbicidal effect rating, ECHORC",[1]; Rate 0.2500 kg/ha,9.0
same,"herbicidal effect rating, CYPIR",[2]; Rate 0.0320 kg/ha,2.0
same,"herbicidal effect rating, CYPIR",[2]; Rate 0.0620 kg/ha,5.5
same,"herbicidal effect rating, CYPIR",[2]; Rate 0.1250 kg/ha,6.0
same,"herbicidal effect rating, CYPIR",[2]; Rate 0.2500 kg/ha,7.0
same,"herbicidal effect rating, CYPSE",[3]; Rate 0.0320 kg/ha,0.0
same,"herbicidal effect rating, CYPSE",[3]; Rate 0.0620 kg/ha,2.0
same,"herbicidal effect rating, CYPSE",[3]; Rate 0.1250 kg/ha,4.5
same,"herbicidal effect rating, CYPSE",[3]; Rate 0.2500 kg/ha,6.5
same,"herbicidal effect rating, MOOVA",[4]; Rate 0.0320 kg/ha,9.0
same,"herbicidal effect rating, MOOVA",[4]; Rate 0.0620 kg/ha,9.0
same,"herbicidal effect rating, MOOVA",[4]; Rate 0.1250 kg/ha,9.0
same,"herbicidal effect rating, MOOVA",[4]; Rate 0.2500 kg/ha,9.0
same,"herbicidal effect rating, SAGPY",[5]; Rate 0.0320 kg/ha,0.0
same,"herbicidal effect rating, SAGPY",[5]; Rate 0.0620 kg/ha,1.0
same,"herbicidal effect rating, SAGPY",[5]; Rate 0.1250 kg/ha,2.0
same,"herbicidal effect rating, SAGPY",[5]; Rate 0.2500 kg/ha,6.0
same,herbicidal effect rating ORYSAT,[6]; Rate 0.0320 kg/ha,3.0
same,herbicidal effect rating ORYSAT,[6]; Rate 0.0620 kg/ha,4.5
same,herbicidal effect rating ORYSAT,[6]; Rate 0.1250 kg/ha,6.5
same,herbicidal effect rating ORYSAT,[6]; Rate 0.2500 kg/ha,8.0
